{
  "source": "patent US20080021002A1",
  "about": "“VITAMIN D COMPOUNDS USED TO STABILIZE KIDNEY TRANSPLANTS” (priority 2000, published 2008)",
  "key": {"Smad 2 protein": {"tested_on": "Smad 2 protein", "assay": "Western blot of renal graft lysates, Smad 2 protein", "assay_type": "in vivo, rat", "conditions": "vs allogeneic untreated controls", "source_text": "(§1) Renal lysates were subjected to SDS-PAGE and transferred to nitrocellulose membranes. The membranes were probed with specific anti-Smad antibodies and appropriated HRP-conjugated secondary antibodies. Signal was detected with chemilumensnce. Following exposure, x-ray films were scanned and the amount of expression compared to that of tubulin as an internal control using Scion Image software. FIG. 4 (A) describes R-Smad expression. FIG. 4 (B) described I-Smad expression.\n(§2) Western Blot Analysis: A portion of the snap frozen graft containing both cortex and medulla was ground with a mortar and pestle. For each 100 mg of tissue, the sample was resuspened in 400 ul of lysis buffer (10 mM Tris base, 150 mM NaCl, pH 8.0) containing protease inhibitors (P2714 1:1000. Sigma Chemical Co., St. Louis, Mo.) and homogenized (PowerGen 125, 1 minute). Triton X100 was then added to 1% and the sample place on ice, for 30 minutes. The solubilized sample was then spun at 4° C. for 15 minutes at 15,000×G. The supernatant was collected and stored at −80° C. Sample protein concentrations were determined using the Micro BCA assay (Pierce Chemical Co., Rockford, Ill.) according to manufacturer=s instructions, except that the assay was performed in half area plates combining 35 μl sample with 70 µl of reagent. […]"}, "[1]": {"tested_on": "kidney or kidney-pancreas transplant recipients", "assay": "Retrospective analysis of renal function (serial serum creatinine) in calcitriol-treated transplant patients", "assay_type": "in vivo, human", "source_text": "Methodology-retrospective analysis: The University of Wisconsin transplant database was screened to identify any kidney and/or kidney-pancreas transplant recipient who received 1,25-dihydroxyvitamin D3 (calcitriol)peri-post-transplant. Clinical and demographic variables were abstracted from the database. Those patients with adequate follow-up data were included in the analysis (≧1year follow-up data following the initiation of calcitriol). Demographic variables included race, age, and nay history of parathyroidectomy as these patients would likely be receiving calcitriol at time of transplantation. The effect of calcitriol treatment on renal function was analyzed using general linear mixed modeling of the change in slope of renal function prior to and following the start of calcitriol therapy. […] Adverse events and hypercalcemia were noted by identifiers in the database and by serum calcium levels as recorded in the database. Hypercalcemia was defined as a serum calcium >10.5 mg/dl. Data assessment—Demographics: Calcitriol-treatment patients were divided into: Group 1: patients who initiated calcitriol therapy<one year following transplantation, Group 2: patients who remained on or initiated calcitriol therapy within two weeks of transplantation, Data assessment—outcomes for Group 1 patients: Renal function was determined by assessing serial serum creatinine values. This serum measure is a standard and accepted measure of renal function. The start of calcitriol therapy was defined as day 0. Time prior to initiation of calcitriol therapy was designated by a negative value. Mean serum creatinine levels appeared to increase in Group 1 patients (indicative of declining renal function) until the time of calcitriol therapy was initiated (Table 3)."}, "MMP 2 mRNA": {"tested_on": "MMP 2 mRNA", "assay": "Semi-quantitative RT-PCR of renal grafts, MMP 2 mRNA", "assay_type": "in vivo, rat", "procedure": "FIG. 5 is a set of graphs showing that 1,25-(OH)2D3 Treatment Alters MMP and TIMP Expression . […] S26 was used as the housekeeping gene. […] Fold changes are expressed relative to the allogeneic untreated control.\nSemi-quantitative Reverse transcription polymerace chain reaction (RT-PCR): Following graft harvest a […] containing both cortex and medulla was snap frozen in liquid nitrogen. Semi-quantitative RT-PCR was performed as described. Little et al. Transplant Int. 12:393-401, 1999. Briefly, samples were homogenized then total RNA extracted with RNAzol B (Tel Test, Inc., Friendswood, Tex.) and reversed transcribed to cDNA according to manufacturer=s instructions (Superscript, Gibco BRL). PCR was performed over the linear range of amplification for both the gene of interest, e.g. TGFβ-1, and the ribosomal protein S26 as a control housekeeping gene. PCR conditions were chosen such that both products were amplified with similar efficiency. The following cycle parameters were employed: denaturing, 94° C. for 60 seconds; annealing, 61° C. for 60 seconds; and extension, 72° C. for 60 seconds. The amount of product was quantified using a phosphoimager (Storm 80) following gel electrophoresis and Vista green detection."}, "Smad 6 protein": {"tested_on": "Smad 6 protein", "assay": "Western blot of renal graft lysates, Smad 6 protein", "assay_type": "in vivo, rat", "conditions": "allograft recipients vs allogeneic untreated control group", "source_text": "as §1, §2"}},
  "data": [
    {"smiles": "C=C1/C(=C\\C=C2/CCC[C@]3(C)[C@@H]([C@H](C)CCCC(C)(C)O)CC[C@@H]23)C[C@@H](O)C[C@@H]1O", "note": "[calcitriol, 1,25-dihydroxyvitamin D3]", "values": [
      {"measurement": "Decrease in Smad 2 protein levels", "setting": "Smad 2 protein; 500 ng/rat/day (data not shown)", "value": 208, "unit": "fold"},
      {"measurement": "Decrease in Smad 2 protein levels", "setting": "Smad 2 protein; 1000 ng/rat/day, p=0.04", "value": 516, "unit": "fold"},
      {"measurement": "Graft failures (loss of the transplant)", "setting": "[1]; Group 1 (26 patients)", "value": "six"},
      {"measurement": "Serum creatinine levels following initiation of therapy", "setting": "[1]; Group 1 patients", "value": "stabilized"},
      {"measurement": "Mean serum creatinine", "setting": "[1]; Group 1 patients, day 100 after start of calcitriol therapy", "value": 2.54, "unit": "mg/dL"},
      {"measurement": "Mean serum creatinine", "setting": "[1]; Group 1 patients, day 200 after start of calcitriol therapy", "value": 2.44, "unit": "mg/dL"},
      {"measurement": "Mean serum creatinine", "setting": "[1]; Group 1 patients, day 300 after start of calcitriol therapy", "value": 2.50, "unit": "mg/dL"},
      {"measurement": "Mean serum creatinine", "setting": "[1]; Group 1 patients, day 400 after start of calcitriol therapy", "value": 2.27, "unit": "mg/dL"},
      {"measurement": "Mean serum creatinine", "setting": "[1]; Group 1 patients, day 500 after start of calcitriol therapy", "value": 2.37, "unit": "mg/dL"},
      {"measurement": "Creatinine trend (slope) after 300 days of therapy", "setting": "[1]; Group 1 patients, repeated measures analysis of slopes", "value": "creatinine was decreasing evidenced by a negative slope"},
      {"measurement": "Difference (change in slope of serum creatinine over time)", "setting": "[1]; Group 1 patients, treatment day +100, negative = decreasing slope, improved renal function", "value": "−0.0050"},
      {"measurement": "Difference (change in slope of serum creatinine over time)", "setting": "[1]; Group 1 patients, treatment day +200", "value": "−0.0046"},
      {"measurement": "Difference (change in slope of serum creatinine over time)", "setting": "[1]; Group 1 patients, treatment day +300", "value": "−0.0080"},
      {"measurement": "Difference (change in slope of serum creatinine over time)", "setting": "[1]; Group 1 patients, treatment day +400", "value": "−0.0085"},
      {"measurement": "Difference (change in slope of serum creatinine over time)", "setting": "[1]; Group 1 patients, treatment day +500", "value": "−0.0078"},
      {"measurement": "Graft failures", "setting": "[1]; Group 2 (22 patients)", "value": "two"},
      {"measurement": "Analysis of interval slopes of serum creatinine", "setting": "[1]; Group 2 patients", "value": "no interview slopes significantly different from 0"},
      {"measurement": "Mean serum creatinine", "setting": "[1]; Group 2 patients (table title prints Group 1), day 100 of calcitriol", "value": 1.61, "unit": "mg/dL"},
      {"measurement": "Mean serum creatinine", "setting": "[1]; Group 2 patients (table title prints Group 1), day 200 of calcitriol", "value": 1.79, "unit": "mg/dL"},
      {"measurement": "Mean serum creatinine", "setting": "[1]; Group 2 patients (table title prints Group 1), day 300 of calcitriol", "value": 1.70, "unit": "mg/dL"},
      {"measurement": "Mean serum creatinine", "setting": "[1]; Group 2 patients (table title prints Group 1), day 400 of calcitriol", "value": 1.62, "unit": "mg/dL"},
      {"measurement": "Mean serum creatinine", "setting": "[1]; Group 2 patients (table title prints Group 1), day 500 of calcitriol", "value": 1.82, "unit": "mg/dL"},
      {"measurement": "Mean serum creatinine levels over time", "setting": "[1]; Group 2 patients, first 600 days following initiation of calcitriol", "value": "remained stable"},
      {"measurement": "Increase in MMP 2 mRNA levels", "setting": "MMP 2 mRNA; allogeneic grafts (FIG. 5A)", "value": 5.6, "unit": "fold"},
      {"measurement": "Increase in MMP 2 mRNA levels", "setting": "MMP 2 mRNA; syngeneic grafts (FIG. 5A)", "value": 4.0, "unit": "fold"},
      {"measurement": "Smad 6 protein expression", "setting": "Smad 6 protein", "value": "decreased"}
    ]}
  ]
}
